Two compounds from US12186354B2, “Lespedeza capitata extract for use in the field of hair care” (priority 2018, dated 2025) can be followed below.

The structures appear in SMILES notation.

In test [1] the test system is JAK1/2-STAT3 pathway. The test is described as follows: IL-6-induced STAT3 phosphorylation in follicular keratinocytes of the outer root sheath (ORS). Type of test: cell-based, human. The conditions noted are these: 5 μM, 1 h pre-treatment, IL-6 100 ng/ml 15 minutes.
Test [2] has as its system 5α-reductase. Description: 5α-reductase activity (DHT/testosterone ratio) in dermal papilla cells, C14 testosterone metabolism. Type of test: cell-based, human. Conditions: 10 μM, incubation 24 h+24 h.

For the compound `N#CC[C@H](C1CCCC1)n1cc(-c2ncnc3[nH]ccc23)cn1` [Ruxolitinib, ruxolitinib], the “% of STAT phosphorylated, Mean” value in test [1] is 102%.
On to `CC(C)(C)NC(=O)[C@H]1CC[C@H]2[C@@H]3CC[C@H]4NC(=O)C=C[C@]4(C)[C@H]3CC[C@]12C` [Finasteride, finasteride], for which, in test [2], the “% inh (DHT/testosterone ratio, relative to the control condition)” value was found to be 94.2% and the “Mean DHT/testosterone ratio (5α-reductase activity)” value worked out at 0.02.
